Test results published in article PMC3243694, “Integrated Dataset of Screening Hits against Multiple Neglected Disease Pathogens” (PLoS Neglected Tropical Diseases, 2011).

Assays:
[1] = system: MRC-5 cell line (diploid human embryonic lung fibroblast); assay: Cytotoxicity on MRC-5 cells; format: cell-based
From the text: [table] An important part of the screen is the evaluation of all compounds for cytotoxicity using the diploid human embryonic lung fibroblast MRC-5 cell line (Figure 2). Further evaluation of cytotoxicity also takes advantage of the assays for intracellular protozoan parasites, as in the case of L. infantum and T. cruzi, which include murine peritoneal macrophage host cells and MRC-5SV2 human lung fibroblast cells, respectively, in the culture system.

[2] = system: Plasmodium falciparum K1 strain; assay: Anti-Plasmodium activity assay (Malstat); format: cell-based; conditions: P. falciparum K1, 72 h
Description: (§1) The compound set was tested against the following parasites: intra-erythrocytic forms in human red blood cells of P. falciparum K1 strain (malaria), [16], [32], [33], [35], bloodstream forms of T. brucei Squib 427 strain (human African trypanosomiasis, HAT), [31], [32], [34], intracellular amastigotes of T. cruzi Tulahuen CL2, beta- galactosidase strain (Chagas' Disease), [32]–[35], intracellular amastigotes of L. infantum MHOM/MA(BE)/67 (leishmaniasis), [32]–[36], larval and/or adult worms of S. mansoni Puerto Rican strain (schistosomiasis), [31], [37], microfilariae of B. malayi (lymphatic filariasis), [30] and microfilariae of O. ochengi or O. lienalis (onchocerciasis), [30]. It should be noted that the human pathogen for onchocerciasis is Onchocerca volvulus, but due to lack of a suitable in vitro assay or animal models for this pathogen, O. ochengi and lienalis, which are both animal pathogens, are used in the primary and secondary assays, [30].

[3] = system: Trypanosoma cruzi, Tulahuen CL2 strain; assay: Antitrypanosomal activity assay, T. cruzi in MRC-5 cells; format: cell-based; conditions: T. cruzi Tulahuen CL2 in MRC-5 cells, 7 days
Description: as §1
171 of the 744 actives passed the initial criterion of IC50<1 µg/ml for T. cruzi Tulahuen CL2, beta galactosidase strain maintained on MRC-5SV2 cells in MEM medium (MRC-5 cell/parasite inoculum: 4.10^3 cells/well+4.10^4 parasites/well), supplemented with […] L-glutamine, 16.5 mM NaHCO3 and 5% heat inactivated fetal calf serum. […] Of these, 109 were eliminated [structures #1–6] for poor selectivity versus mammalian cells (SI<50) and an additional 11 due to undesirable chemical attributes. The remaining 51 compounds were sorted into 10 series (45 compounds) and 6 singletons [structures # 21, 22]. Two of these series with excellent potency against T. cruzi, limited activity against other protozoa and SI values >50 (not shown), have been transferred to DNDi for further evaluation.

[4] = system: Schistosoma mansoni adult worms; assay: Anti-Schistosoma activity assay (adult worm motility); format: cell-based; conditions: S. mansoni adult worms; 12.5 µM (method: 10 µg/ml or 12.5 µM)
Description: as §1
A subset of 9478 of the 10,000 compound collection was tested against the Puerto Rican strain of S. mansoni. 6144 of these were tested in a primary larval assay followed by the ex-vivo adult secondary screen. The remainder was screened only in the adult assay. […] The 65 compounds were sorted by chemical attractiveness, potency against adult schistosomes in culture, selectivity against other parasites, and toxicity to mammalian cells in culture. Based on this analysis, 5 series encompassing 13 compounds were chosen for advancement through the African Network for Drug and Diagnostic Innovation (ANDI) and other PDPs. Representative structures [structures # 13, 27, 28] are shown (Table S1). These compounds are unburdened by obvious toxic moieties, have acceptable compliance with the Lipinski rules, are selectively active against schistosomes and are not overtly toxic to mammalian cells. It has unfortunately not been possible to titrate all of these hits in culture; of about 50% for which such data are available, none has an IC50<2 µg/ml (which is the initial potency criteria).

[5] = system: Onchocerca (lienalis or ochengi) microfilariae; assay: Anti-Onchocerca microfilariae motility assay; format: cell-based, Onchocerca lienalis or O. ochengi
Description: as §1
(§2) 4240 compound s were screened against O. ochengi at the University of Buea in Cameroon, while a subset of […] compounds was successfully screened in UK by the Northwick Park Institute for Medical Research against O. lienalis, at a uniform molarity. […] After removing molecules that were toxic to mammalian cells (IC50<5 µg/ml), 292 molecules remained for further evaluation. […] From the latter sub-set, […] distinct chemical series and one singleton [structure # 35] were active against both microfilaria and adults. One series [structures # 2, 3] was deemed not interesting due to lack of selectivity against mammalian cells. The remaining series is being transferred to ANDI for further progression as part of a new collaboration.

[6] = system: Onchocerca adult worms; format: cell-based
From the text: In some cases, particularly for the antifilarial screens, a second whole organism test with adult stage parasites is included prior to animal evaluation. The decision to utilize microfilariae for primary screening was based on throughput and biological considerations. It is difficult to acquire enough adult filariae to enable screening more than 1000 compounds per year, a rate far lower than needed for timely evaluation of the available compounds. In light of this situation, and considering that we are targeting molecules that are active on both stages, microfilariae screening was adopted as a suitable filter to identify compounds with potential macrofilaricidal activity.
as §2

[7] = system: Trypanosoma brucei brucei Squib-427 strain; assay: Antitrypanosomal activity assay, T. brucei (resazurin); format: cell-based; conditions: T. brucei Squib 427 bloodstream forms, 72 h
Description: as §1

Row | Structure (SMILES) | CYT IC50 [1] | MAL IC50 [2] | CHA IC50 [3] | SCH % Motility Reduction at 12.5µM [4] | ONC/MF % Motility Reduction at 12.5µM [5] | ONC/AW % worm Mortality @ 12.5µM [6] | HAT IC50 [7]
1 | Cc1cc(NC(=O)CSc2ccc3nnc(-c4cccs4)n3n2)no1 [TDR78826] | >11.17 µg/mL | 0.16 µg/mL | 4.97 µg/mL | 0% | 6.7% | 0% | 
2 | CCCc1cc(=O)[nH]c(-n2nc(C)cc2NC(=O)C23CC4CC(CC(C4)C2)C3)n1 [TDR79936] | <0.12 µg/mL | <0.12 µg/mL | <0.12 µg/mL | 100% | 100% | 75% | <0.12 µg/mL
3 | CSCc1csc(NC(=O)Cc2ccc(Cl)cc2)n1 [TDR81206] | 3.7 µg/mL | 5.98 µg/mL | 2.47 µg/mL | 0% | 100% | 75% | 3.0 µg/mL
